From patent publication US20240366598A1, “GLUCOSE-DEPENDENT INSULINOTROPIC POLYPEPTIDE RECEPTOR ANTAGONISTS AND USES THEREOF” (Pfizer Inc., priority 2023, published 2024)
pIC50: −log10 of the molar value.

biological target: T1, human Glucose-dependent Insulinotropic Polypeptide Receptor (hGIPR) (Homo sapiens, UniProt P48546); assay: Functional in vitro GIPR antagonist potency assay (cAMP HTRF, CHO-K1 cells stably expressing hGIPR, hGIP stimulation at about EC80); format: cell-based; conditions: geometric mean, hGIP at estimated EC80, examples marked ^2: overall geometric mean of multiple forms (including salts) tested
T1 sequence (P48546 22-466): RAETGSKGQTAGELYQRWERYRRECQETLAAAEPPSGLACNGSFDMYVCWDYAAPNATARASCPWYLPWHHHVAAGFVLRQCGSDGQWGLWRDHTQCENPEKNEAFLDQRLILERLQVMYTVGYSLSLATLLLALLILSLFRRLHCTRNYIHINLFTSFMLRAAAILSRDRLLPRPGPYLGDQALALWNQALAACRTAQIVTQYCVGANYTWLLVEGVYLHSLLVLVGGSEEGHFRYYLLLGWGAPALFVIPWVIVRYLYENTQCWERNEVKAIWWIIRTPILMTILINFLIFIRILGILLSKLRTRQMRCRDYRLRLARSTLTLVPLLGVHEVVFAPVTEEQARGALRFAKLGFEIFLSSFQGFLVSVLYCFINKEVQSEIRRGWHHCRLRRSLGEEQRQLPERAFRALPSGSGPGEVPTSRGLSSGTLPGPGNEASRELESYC
Outline: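 HTRF quantification of cAMP after stimulation with hGIP at an estimated EC80 for 30 min at 37 °C. Before stimulation, hGIPR-expressing CHO-K1 cells were exposed 2 h to test compound in IBMX-containing buffer, with 0.5% DMSO final. Percent effect is referenced to agonist alone (0%) and to 80 μM of a reference antagonist (100%), and runs required the agonist concentration to fall within the on-the-day EC50–EC90.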

| pIC50 | SMILES |
| --- | --- |
| 6.59 | CC(C)c1ccc(NC(=O)N2CCC[C@@H]2C(=O)Nc2ccc(-c3cc(F)cc(C(=O)O)c3)cc2)cc1 [Example 85, 5-fluoro-4′-[(1-{[4-(propan-2-yl)phenyl]carbamoyl}-D-prolyl)amino][1,1′-biphenyl]-3-carboxylic acid] |
| 6.85 | O=C(O)[C@@H]1CCc2nc(NC(=O)[C@H]3CCCN3C(=O)Nc3ccc(C(F)(F)F)cc3)ccc2C1 (single isomer, unassigned) [Example 217, 2-[(1-{[4-(trifluoromethyl)phenyl]carbamoyl}-D-prolyl)amino]-5,6,7,8-tetrahydroquinoline-6-carboxylic acid, DIAST-1] |
| 8.43 | Cc1cc(NC(=O)N2CCC[C@@H]2C(=O)Nc2ccc(-c3ccc(C(=O)O)cc3)cn2)ccc1C1CC1 [Example 179, 4-[6-({1-[(4-cyclopropyl-3-methylphenyl)carbamoyl]-D-prolyl}amino)pyridin-3-yl]benzoic acid] |
| 7.41 | CC(C)c1ccc(NC(=O)N2CCC[C@@H]2C(=O)Nc2ccc(-c3ccc(C(N)=O)cc3)cc2)cc1 [Example 91, (2R)-N^2-(4′-carbamoyl[1,1′-biphenyl]-4-yl)-N^1-[4-(propan-2-yl)phenyl]pyrrolidine-1,2-dicarboxamide] |
| 8.32 | O=C(O)c1ccc(-c2ccc(NC(=O)[C@H]3CCCN3C(=O)Nc3ccc(C4CCCC4)cc3)cc2)cc1 [Example 115, 4′-({1-[(4-cyclopentylphenyl)carbamoyl]-D-prolyl}amino)[1,1′-biphenyl]-4-carboxylic acid] |
| 7.57 | CC(C)c1ccc(NC(=O)N2CCC[C@@H]2C(=O)Nc2ccc(-c3cc(F)c(C(=O)O)cc3F)cc2)cc1 [Example 82, 2,5-difluoro-4′-[(1-{[4-(propan-2-yl)phenyl]carbamoyl}-D-prolyl)amino][1,1′-biphenyl]-4-carboxylic acid] |
| 7.74 | Cc1ccc(CNC(=O)N2CCC[C@@H]2C(=O)Nc2ccc(-c3ccc(C(=O)O)nc3C)cc2)cc1F [Example 212, 5-{4-[(1-{[(3-fluoro-4-methylphenyl)methyl]carbamoyl}-D-prolyl)amino]phenyl}-6-methylpyridine-2-carboxylic acid] |
| 6.85 | O=C(O)c1ccc(-c2ccc(NC(=O)[C@H]3CCCN3C(=O)NCc3ccc(C(F)(F)F)cc3F)cc2)cc1 [Example 131, 4′-{[1-({[2-fluoro-4-(trifluoromethyl)phenyl]methyl}carbamoyl)-D-prolyl]amino}[1,1′-biphenyl]-4-carboxylic acid] |
| 7.06 | COc1cc(C(=O)O)cc(C)c1-c1ccc(NC(=O)[C@H]2CCCN2C(=O)Nc2ccc(C(C)C)cc2)cc1 [Example 92, 2-methoxy-6-methyl-4′-[(1-{[4-(propan-2-yl)phenyl]carbamoyl}-D-prolyl)amino][1,1′-biphenyl]-4-carboxylic acid] |
| 7.01 | O=C(O)c1ccc(-c2ccc(NC(=O)[C@H]3CCCN3C(=O)NCc3ccc(C(F)F)cc3)cc2)cc1 [Example 141, 4′-{[1-({[4-(difluoromethyl)phenyl]methyl}carbamoyl)-D-prolyl]amino}[1,1′-biphenyl]-4-carboxylic acid] |
| 7.96 | Cc1cc(C(=O)O)ccc1-c1ccc(NC(=O)[C@H]2CCCN2C(=O)Nc2ccc(C(C)C)c(F)c2)nc1 [Example 176, 4-{6-[(1-{[3-fluoro-4-(propan-2-yl)phenyl]carbamoyl}-D-prolyl)amino]pyridin-3-yl}-3-methylbenzoic acid] |
| 8.21 | COc1cc(-c2ccc(NC(=O)[C@H]3CCCN3C(=O)Nc3ccc(C(C)C)c(F)c3)cc2)ccc1C(=O)O [Example 32, 4′-[(1-{[3-Fluoro-4-(propan-2-yl)phenyl]carbamoyl}-D-prolyl)amino]-3-methoxy[1,1′-biphenyl]-4-carboxylic acid] |
| 8.03 | O=C(O)c1ccc(-c2ccc(NC(=O)[C@H]3CCCN3C(=O)Nc3ccc(C4CCC4)cc3)nc2)cc1 [Example 210, 4-[6-({1-[(4-cyclobutylphenyl)carbamoyl]-D-prolyl}amino)pyridin-3-yl]benzoic acid] |
| 7.96 | O=C(O)c1ccc(-c2ccc(NC(=O)[C@H]3CCCN3C(=O)NCc3ccc(C(F)(F)F)cc3)nc2)cc1 [Example 153, 4-(6-{[1-({[4-(trifluoromethyl)phenyl]methyl}carbamoyl)-D-prolyl]amino}pyridin-3-yl)benzoic acid] |
| 8.43 | Cc1cc(NC(=O)N2CCC[C@@H]2C(=O)Nc2ccc(-c3ccc(C(=O)O)cc3)cc2)ccc1C(C)C [Example 39, ammonium 4′-[(1-{[3-methyl-4-(propan-2-yl)phenyl]carbamoyl}-D-prolyl)amino][1,1′-biphenyl]-4-carboxylate] |
| 7.33 | CC(C)c1ccc(NC(=O)N2CCC[C@@H]2C(=O)Nc2ccc(-c3cc(F)c(O)cc3F)cc2)cc1 [Example 47, (2R)-N^2-(2′,5′-difluoro-4′-hydroxy[1,1′-biphenyl]-4-yl)-N^1-[4-(propan-2-yl)phenyl]pyrrolidine-1,2-dicarboxamide] |
| 6.82 | CC(C)c1ccc(NC(=O)N2CCC[C@@H]2C(=O)Nc2ccc(-c3ccc(C(=O)O)cc3)cc2)nc1 [Example 61, 4′-[(1-{[5-(propan-2-yl)pyridin-2-yl]carbamoyl}-D-prolyl)amino][1,1′-biphenyl]-4-carboxylic acid] |
| 7.82 | Cc1cc(NC(=O)N2CCC[C@@H]2C(=O)Nc2ccc(-c3ccc(C(=O)O)nc3C)cc2)ccc1C(C)C [Example 168, 6-methyl-5-{4-[(1-{[3-methyl-4-(propan-2-yl)phenyl]carbamoyl}-D-prolyl)amino]phenyl}pyridine-2-carboxylic acid] |
| 7.77 | O=C(O)c1cccc(-c2ccc(NC(=O)[C@H]3CCCN3C(=O)Nc3ccc(C4CCC4)cc3)nc2)c1 [Example 38, 3-[6-({1-[(4-Cyclobutylphenyl)carbamoyl]-D-prolyl}amino)pyridin-3-yl]benzoic acid] |
| 8.00 | Cc1cc(NC(=O)[C@H]2CCCN2C(=O)Nc2ccc(C(C)C)cc2)ccc1-c1ccc(C(=O)O)cc1 [Example 76, 2′-methyl-4′-[(1-{[4-(propan-2-yl)phenyl]carbamoyl}-D-prolyl)amino][1,1′-biphenyl]-4-carboxylic acid] |
| 7.38 | CC(C)c1ccc(CNC(=O)N2CCC[C@@H]2C(=O)Nc2ccc(-c3ccc(C(=O)O)c(F)c3)cn2)cc1 [Example 189, 2-fluoro-4-(6-{[1-({[4-(propan-2-yl)phenyl]methyl}carbamoyl)-D-prolyl]amino}pyridin-3-yl)benzoic acid] |
| 7.16 | O=C(O)c1ccc(-c2ccc(NC(=O)[C@H]3CCCN3C(=O)Nc3ccc(C(F)(F)F)nc3)cc2)cc1 [Example 72, 4′-[(1-{[6-(trifluoromethyl)pyridin-3-yl]carbamoyl}-D-prolyl)amino][1,1′-biphenyl]-4-carboxylic acid] |
| 7.09 | Cc1cc(NC(=O)N2CCC[C@@H]2C(=O)Nc2ccc3c(n2)CC[C@@H](C(=O)O)C3)ccc1C(F)(F)F (single isomer, unassigned) [Example 226, 2-[(1-{[3-methyl-4-(trifluoromethyl)phenyl]carbamoyl}-D-prolyl)amino]-5,6,7,8-tetrahydroquinoline-6-carboxylic acid, DIAST-1] |
| 8.36 | Cc1cc(C(=O)O)ccc1-c1ccc(NC(=O)[C@H]2CCCN2C(=O)Nc2ccc(C(C)C)c(C)c2)nc1 [Example 173, 3-methyl-4-{6-[(1-{[3-methyl-4-(propan-2-yl)phenyl]carbamoyl}-D-prolyl)amino]pyridin-3-yl}benzoic acid] |
| 8.54 | Cc1cc(NC(=O)[C@H]2CCCN2C(=O)Nc2ccc(C(C)C)c(F)c2)ccc1-c1ccc(C(=O)O)cc1 [Example 219, 4′-[(1-{[3-fluoro-4-(propan-2-yl)phenyl]carbamoyl}-D-prolyl)amino]-2′-methyl[1,1′-biphenyl]-4-carboxylic acid] |
| 7.77 | O=C(O)c1ccc(-c2ncc(NC(=O)[C@H]3CCCN3C(=O)Nc3ccc(C(F)(F)F)cc3)cc2F)cc1 [Example 193, 4-{3-fluoro-5-[(1-{[4-(trifluoromethyl)phenyl]carbamoyl}-D-prolyl)amino]pyridin-2-yl}benzoic acid] |
| 8.08 | Cc1cc(NC(=O)N2CCC[C@@H]2C(=O)Nc2ccc(-c3cccc(C(=O)O)c3)cn2)ccc1C(F)(F)F [Example 175, 3-{6-[(1-{[3-methyl-4-(trifluoromethyl)phenyl]carbamoyl}-D-prolyl)amino]pyridin-3-yl}benzoic acid] |
| 7.62 | O=C(O)c1cccc(-c2ccc(NC(=O)[C@H]3CCCN3C(=O)Nc3ccc(C(F)(F)F)cc3)nc2)c1 [Example 181, 3-{6-[(1-{[4-(trifluoromethyl)phenyl]carbamoyl}-D-prolyl)amino]pyridin-3-yl}benzoic acid] |
| 8.03 | O=C(O)c1ccc(-c2ccc(NC(=O)[C@H]3CCCN3C(=O)Nc3cc(F)c(C(F)(F)F)c(F)c3)cc2)cc1 [Example 128, 4′-[(1-{[3,5-difluoro-4-(trifluoromethyl)phenyl]carbamoyl}-D-prolyl)amino][1,1′-biphenyl]-4-carboxylic acid] |
| 7.54 | O=C(O)c1ccc(-c2ccc(NC(=O)[C@H]3CCCN3C(=O)Nc3ccc(Cl)cc3Cl)cc2)cc1 [Example 103, 4′-({1-[(2,4-dichlorophenyl)carbamoyl]-D-prolyl}amino)[1,1′-biphenyl]-4-carboxylic acid] |
